Measured values: patent US7045361B2, “Analyte sensing via acridine-based boronate biosensors” (Medtronic MiniMed, Inc., priority 2001, dated 2006)
One block for each compound: values may come before it.

Assays:
[1] = Comparative analysis of the spectral properties of fluorophores; type: physicochemical; conditions: for λem(max) / λex / λem(50% max): PBS containing 0.5% DMSO at 21° C; for λem(50% max): bathochromic wavelength at 50% of maximum
Source text: A comparative analysis of the spectral properties of certain fluorophores is shown Table 1. […] This phenomenon is unexpected given the chemical similarity between anthracene and an acridine. As shown in the Table 1, the acridine orange fluorophore emits at even longer wavelengths.

[2] = Glucose transduction of monotopic acridine-based boronate biosensor molecules by fluorescence spectroscopy; conditions: for wavelength of maximum intensity (Imax): PBS with DMSO
Procedure: Glucose transduction of particular acridine-based boronate bio sensor molecules was observed using fluorescence spectroscopy. Fluorescence measurements were taken on a Yorbin Fluorolog instrument. […]
Aliquots of glucose were added and responses were measured at 436 nm, or maximum intensity. (See Table 3).
Another transduction experiment was performed with ACRAB at 500 nm, or approximately 25% of the value of maximum intensity. The data taken at 500 nm generally parallel those taken at 436 nm, thus indicating no decrease in performance of the acridine-based boronate biosensor molecule at the longer wavelength. This shift of 83 nm is very significant in that it provides about a 10-fold increase of transmission of light through tissue and skin.
MEACRAB was then diluted 100-fold to 100 nM and transduction at conditions of ambient temperature. The solution contained 0.5% DMSO.

[3] = Emission spectra in presence and absence of glucose (FIG. 14A/14B transduction experiment)
Source text: FIG. 14A depicts the results of a transduction experiment with anthracene boronate.
FIG. 14B depicts the results of a transduction experiment with methylacridine boronate (MEACRAB) in the presence of glucose.
A comparison of anthracene boronate and methylacridine boronate (MEACRAB) in the presence and absence of glucose further highlights the unexpected differences between these two fluorescent molecules in terms of their respective fluorescent properties, such as transduction of glucose at longer wavelengths, i.e., glucose sensing capacity as indicated by a change in fluorescence in the presence of glucose at longer wavelengths. These differences are illustrated in FIG. 14A and FIG. 14B, which depicts the emission spectra of anthracene boronate and methylacridine boronate, respectively in the presence and absence of glucose. From inspection of FIG. 14A, it can be observed that at about 440 nm, which is about at a peak of next to maximum intensity, anthracene boronate yields about 25% transduction in the presence of glucose. […] For instance, at about 500 nm, methylacridine boronate yields about 25% transduction in the presence of glucose. Thus, the ability of an acridine boronate, such as methylacridine boronate, to transduce in the presence of glucose at longer wavelengths, as compared with anthracene boronate, is unexpected. […]

emission profile detectable out to [1]: 575–600 nm | maximum emission [1]: 525 nm | λem(max) [1]: 526 nm | λex [1]: 493 nm | λem(50% max) [1]: 567 nm
Compound: CN(C)c1ccc2cc3ccc(N(C)C)cc3nc2c1 [Acridine Orange, 3,6-bis(dimethylamino)acridine]

λem(max) [1]: 428 nm | λex [1]: 360 nm | λem(50% max) [1]: 480 nm | emission intensity at about 480 nm relative to intensity of maximum emission wavelength [1]: approximately 50%
Compound: c1ccc2nc3ccccc3cc2c1 [Acridine]

λem(max) [1]: 417 nm | λex [1]: 370 nm | λem(50% max) [1]: 428 nm | emission intensity at about 480 nm relative to intensity of maximum emission wavelength [1]: no detectable emission
Compound: c1ccc2cc3ccccc3cc2c1 [Anthracene]

intensity at 500 nm relative to the value of maximum intensity ([2]; 500 nm): 25% | wavelength of maximum intensity (Imax) [2]: 438 nm
Compound: Cc1ccc2nc3ccccc3c(CN(CCCCCO)Cc3ccccc3B(O)O)c2c1 [MEACRAB, aminomethylhydroxypentyl-methylacridine boronate]
Transduction ([2]; 100 nM, 0.5% DMSO, ambient temperature, 509 nm, glucose 87 mg/dL): 21% | Transduction ([2]; 100 nM, 0.5% DMSO, ambient temperature, 509 nm, glucose 173 mg/dL): 29% | Transduction ([2]; 100 nM, 0.5% DMSO, ambient temperature, 509 nm, glucose 256 mg/dL): 53% | Transduction ([2]; 100 nM, 0.5% DMSO, ambient temperature, 509 nm, glucose 341 mg/dL): 77% | Transduction ([2]; 100 nM, 0.5% DMSO, ambient temperature, 509 nm, glucose 425 mg/dL): 94% | Transduction ([2]; 100 nM, 0.5% DMSO, ambient temperature, 509 nm, glucose 510 mg/dL): 109% | Transduction ([2]; 100 nM, 0.5% DMSO, ambient temperature, 509 nm, glucose 603 mg/dL): 118% | Transduction ([2]; 100 nM, 0.5% DMSO, ambient temperature, 509 nm, glucose 683 mg/dL): 121% | Transduction ([2]; 100 nM, 0.5% DMSO, ambient temperature, 509 nm, glucose 767 mg/dL): 126% | Transduction ([2]; 100 nM, 0.5% DMSO, ambient temperature, 509 nm, glucose 834 mg/dL): 134% | Transduction ([2]; 100 nM, 0.5% DMSO, ambient temperature, 509 nm, glucose 927 mg/dL): 142% | Transduction ([2]; 100 nM, 0.5% DMSO, ambient temperature, 509 nm, glucose 1012 mg/dL): 158% | Transduction ([2]; 10 μM in PBS, 4% DMSO, 500 nm, glucose 93 mg/dL): 30% | Transduction ([2]; 10 μM in PBS, 4% DMSO, 500 nm, glucose 184 mg/dL): 60% | Transduction ([2]; 10 μM in PBS, 4% DMSO, 500 nm, glucose 275 mg/dL): 100% | Transduction ([2]; 10 μM in PBS, 4% DMSO, 500 nm, glucose 364 mg/dL): 120% | Transduction ([2]; 10 μM in PBS, 4% DMSO, 500 nm, glucose 459 mg/dL): 170% | Transduction ([2]; 10 μM in PBS, 4% DMSO, 500 nm, glucose 547 mg/dL): 190% | Transduction ([2]; 10 μM in PBS, 4% DMSO, 500 nm, glucose 650 mg/dL): 220% | performance at 100 nM compared with ACRAB, or MEACRAB itself, at 10 μM ([2]; emission wavelength of 500 nm, 0.5% DMSO): performed better | transduction in the presence of glucose ([3]; at about 440 nm): about 50% | transduction in the presence of glucose ([3]; at about 500 nm): about 25%

intensity at 500 nm relative to the value of maximum intensity ([2]; 500 nm): approximately 25% | wavelength of maximum intensity (Imax) [2]: 436 nm
Compound: aminomethylhydroxypentyl-acridine boronate [ACRAB]
Transduction ([2]; 500 nm, glucose 49 mg/dL): 11% | Transduction ([2]; 500 nm, glucose 149 mg/dL): 24% | Transduction ([2]; 500 nm, glucose 198 mg/dL): 37% | Transduction ([2]; 500 nm, glucose 284 mg/dL): 47% | Transduction ([2]; 500 nm, glucose 374 mg/dL): 56% | Transduction ([2]; 500 nm, glucose 441 mg/dL): 62% | Transduction ([2]; 500 nm, glucose 559 mg/dL): 67% | Transduction ([2]; approx 10 μM, PBS pH 7.4, 0.5% DMSO, 436 nm, glucose 50 mg/dL): 15% | Transduction ([2]; approx 10 μM, PBS pH 7.4, 0.5% DMSO, 436 nm, glucose 150 mg/dL): 27% | Transduction ([2]; approx 10 μM, PBS pH 7.4, 0.5% DMSO, 436 nm, glucose 200 mg/dL): 41% | Transduction ([2]; approx 10 μM, PBS pH 7.4, 0.5% DMSO, 436 nm, glucose 300 mg/dL): 48%
